Test results from US20120244567A1, “HUMAN EMBRYONIC STEM CELLS FOR HIGH THROUGHOUT DRUG SCREENING” (BUCK INSTITUTE FOR RESEARCH ON AGING, priority 2009, published 2012).
Where a name gives a salt, the structure may show the parent alone.

System: dopaminergic neurons
Description: RNAs isolated from NSCs and neurons with and without drug treatments were hybridized to Illumina HumanRef-8 BeadChip (Illumina, Inc., San Diego, Calif., performed by Microarray core facility at the Burnham Institute for Medical Research). The Illumina array data were normalized by the quantile method, and then transformed log 2 ratio values for a zero mean for expression values of each gene across all samples. The statistical and bioinformatics analyses were conducted by using R and the bioconductor package (www.bioconductor.org). The gene set enrichment analysis was conducted using the GSEA software (www.broad.mit.edu/gsea).
The comparative results are then measured by a non-parametric, running sum statistic termed the enrichment score. The enrichment score significance is assessed by 1,000 permutation tests to compute the enrichment p-value.

[1] = enriched in treated DA neurons, Nom P-Val 0.910714
[2] = enriched in treated DA neurons, Nom P-Val 1
[3] = enriched in untreated DA neurons, NOM p-val 0
[4] = enriched in untreated DA neurons, NOM p-val 0.111111
[5] = enriched in untreated DA neurons, NOM p-val 0.166667
[6] = enriched in untreated DA neurons, NOM p-val 0.444444
[7] = enriched in untreated DA neurons, NOM p-val 0.818182
[8] = enriched in untreated DA neurons, NOM p-val 0.90625
[9] = enriched in untreated DA neurons, NOM p-val 0.955556
[10] = enriched in untreated DA neurons, NOM p-val 1

**Q.** What does the source list for CCCCc1oc2ccccc2c1C(=O)c1cc(I)c(OCCN(CC)CC)c(I)c1 [Amiodarone Hydrochloride]?
**A.** Nes: Transferase Activity Transferring Glycosyl Groups (enriched in treated DA neurons, Nom P-Val 0.864865): 0.8297; Nes: Cation Binding (enriched in treated DA neurons, Nom P-Val 0.894737): 0.7825; Nes: Calmodulin Binding [1]: 0.6917; Nes: Protein N Terminus Binding [1]: 0.7167; Nes: Guanyl Nucleotide Binding (enriched in treated DA neurons, Nom P-Val 0.913044): 0.72; Nes: Hydrolase Activity Acting On Ester Bonds (enriched in treated DA neurons, Nom P-Val 0.924051): 0.7747; Nes: Transcription Corepressor Activity (enriched in treated DA neurons, Nom P-Val 0.942857): 0.6958; Nes: Atpase Activity Coupled To Transmembrane Movement Of Ions (enriched in treated DA neurons, Nom P-Val 0.944444): 0.5935; Nes: Structural Molecule Activity (enriched in treated DA neurons, Nom P-Val 0.963415): 0.7324; Nes: Transferase Activity Transferring Alkyl Or Aryl Other Than Methyl Groups (enriched in treated DA neurons, Nom P-Val 0.968254): 0.6284; Nes: Actin Filament Binding (enriched in treated DA neurons, Nom P-Val 0.983871): 0.3138; Nes: Mrna Binding (enriched in treated DA neurons, Nom P-Val 0.984375): 0.4087; Nes: Transcription Factor Binding (enriched in treated DA neurons, Nom P-Val 0.987013): 0.742; Nes: Phosphoric Ester Hydrolase Activity (enriched in treated DA neurons, Nom P-Val 0.9875): 0.6959; Nes: Atpase Activity [2]: 0.6528; Nes: Rna Binding [2]: 0.4406; Nes: Translation Initiation Factor Activity [2]: 0.3311; NES: Gtpase Binding [3]: −1.62; NES: Hydrolase Activity Hydrolyzing O Glycosyl Compounds [3]: −1.479; NES: Ras Gtpase Binding (enriched in untreated DA neurons, NOM p-val 0.02): −1.585; NES: Cation Channel Activity (enriched in untreated DA neurons, NOM p-val 0.027778): −1.394; NES: Small Gtpase Binding (enriched in untreated DA neurons, NOM p-val 0.047619): −1.4967; NES: Gated Channel Activity (enriched in untreated DA neurons, NOM p-val 0.051282): −1.491; NES: Ion Channel Activity (enriched in untreated DA neurons, NOM p-val 0.060606): −1.2; NES: Hydrolase Activity Acting On Glycosyl Bonds (enriched in untreated DA neurons, NOM p-val 0.08): −1.414; NES: Nucleobase Nucleoside Nucleotide Kinase Activity (enriched in untreated DA neurons, NOM p-val 0.081081): −1.368; NES: Voltage Gated Channel Activity (enriched in untreated DA neurons, NOM p-val 0.085714): −1.284; NES: Kinase Binding (enriched in untreated DA neurons, NOM p-val 0.1): −1.316; NES: Exopeptidase Activity (enriched in untreated DA neurons, NOM p-val 0.105263): −1.3223; NES: Metal Ion Transmembrane Transporter Activity [4]: −1.269; NES: Potassium Channel Activity [4]: −1.325; NES: Substrate Specific Channel Activity (enriched in untreated DA neurons, NOM p-val 0.129032): −1.221; NES: Chromatin Binding (enriched in untreated DA neurons, NOM p-val 0.142857): −1.239; NES: Gtpase Activator Activity (enriched in untreated DA neurons, NOM p-val 0.157895): −1.222; NES: Phosphoprotein Phosphatase Activity (enriched in untreated DA neurons, NOM p-val 0.162162): −1.15; NES: Electron Carrier Activity [5]: −1.204; NES: Voltage Gated Cation Channel Activity [5]: −1.174; NES: Transition Metal Ion Binding (enriched in untreated DA neurons, NOM p-val 0.171429): −1.098; NES: Protein C Terminus Binding (enriched in untreated DA neurons, NOM p-val 0.212121): −1.195; NES: Helicase Activity (enriched in untreated DA neurons, NOM p-val 0.216216): −1.187; NES: Protein Complex Binding (enriched in untreated DA neurons, NOM p-val 0.222222): −1.133; NES: Enzyme Binding (enriched in untreated DA neurons, NOM p-val 0.233333): −1.04; NES: Ras Gtpase Activator Activity (enriched in untreated DA neurons, NOM p-val 0.243902): −1.144; NES: S Adenosylmethionine Dependent Methyltransferase Activity (enriched in untreated DA neurons, NOM p-val 0.25): −1.2358; NES: Ligand Gated Channel Activity (enriched in untreated DA neurons, NOM p-val 0.263158): −1.236; NES: Cation Transmembrane Transporter Activity (enriched in untreated DA neurons, NOM p-val 0.291667): −1.08; NES: Rho Gtpase Activator Activity (enriched in untreated DA neurons, NOM p-val 0.297297): −1.16; NES: Rna Dependent Atpase Activity (enriched in untreated DA neurons, NOM p-val 0.318182): −1.11; NES: Atp Dependent Helicase Activity (enriched in untreated DA neurons, NOM p-val 0.324324): −1.133; NES: Methyltransferase Activity (enriched in untreated DA neurons, NOM p-val 0.340909): −1.089; NES: Auxiliary Transport Protein Activity (enriched in untreated DA neurons, NOM p-val 0.347826): −1.141; NES: Transcription Factor Activity (enriched in untreated DA neurons, NOM p-val 0.35): −1.022; NES: Rna Helicase Activity (enriched in untreated DA neurons, NOM p-val 0.365854): −1.053; NES: Growth Factor Activity (enriched in untreated DA neurons, NOM p-val 0.367347): −1.079; NES: Small Gtpase Regulator Activity (enriched in untreated DA neurons, NOM p-val 0.387097): −1.038; NES: Phosphotransferase Activity Phosphate Group As Acceptor (enriched in untreated DA neurons, NOM p-val 0.431818): −1.058; NES: Protein Tyrosine Phosphatase Activity (enriched in untreated DA neurons, NOM p-val 0.432432): −1.019; NES: Peptidase Activity [6]: −0.9811; NES: Tubulin Binding [6]: −0.9894; NES: Cytokine Binding (enriched in untreated DA neurons, NOM p-val 0.459459): −0.9644; NES: Gtpase Regulator Activity (enriched in untreated DA neurons, NOM p-val 0.461538): −0.9685; NES: Actin Binding (enriched in untreated DA neurons, NOM p-val 0.464286): −1.007; NES: Transferase Activity Transferring One Carbon Groups (enriched in untreated DA neurons, NOM p-val 0.466667): −0.9965; NES: Receptor Binding (enriched in untreated DA neurons, NOM p-val 0.47619): −0.9865; NES: Protein Serine Threonine Phosphatase Activity (enriched in untreated DA neurons, NOM p-val 0.48718): −0.9907; NES: Polysaccharide Binding (enriched in untreated DA neurons, NOM p-val 0.5): −0.9231; NES: Atp Dependent Rna Helicase Activity (enriched in untreated DA neurons, NOM p-val 0.52381): −1.022; NES: Sh3 Sh2 Adaptor Activity (enriched in untreated DA neurons, NOM p-val 0.542857): −0.8755; NES: Pattern Binding (enriched in untreated DA neurons, NOM p-val 0.567568): −0.9438; NES: Glycosaminoglycan Binding (enriched in untreated DA neurons, NOM p-val 0.571429): −0.9097; NES: Phosphoric Monoester Hydrolase Activity (enriched in untreated DA neurons, NOM p-val 0.612903): −0.9735; NES: Hydrolase Activity Acting On Carbon Nitrogen But Not Peptide Bonds (enriched in untreated DA neurons, NOM p-val 0.634146): −0.8501; NES: Cofactor Binding (enriched in untreated DA neurons, NOM p-val 0.636364): −0.8571; NES: Protein Tyrosine Kinase Activity (enriched in untreated DA neurons, NOM p-val 0.657143): −0.8381; NES: Oxidoreductase Activity Go 0016705 (enriched in untreated DA neurons, NOM p-val 0.675676): −0.8606; NES: Growth Factor Binding (enriched in untreated DA neurons, NOM p-val 0.705882): −0.8342; NES: Signal Sequence Binding (enriched in untreated DA neurons, NOM p-val 0.707317): −0.8186; NES: Cysteine Type Peptidase Activity (enriched in untreated DA neurons, NOM p-val 0.714286): −0.844; NES: Dna Dependent Atpase Activity (enriched in untreated DA neurons, NOM p-val 0.783784): −0.8332; NES: Cysteine Type Endopeptidase Activity [7]: −0.8093; NES: Oxidoreductase Activity [7]: −0.9148; NES: Organic Acid Transmembrane Transporter Activity (enriched in untreated DA neurons, NOM p-val 0.833333): −0.7234; NES: Lipid Binding (enriched in untreated DA neurons, NOM p-val 0.852941): −0.7964; NES: Ribonuclease Activity (enriched in untreated DA neurons, NOM p-val 0.875): −0.6173; NES: Protein Kinase Regulator Activity (enriched in untreated DA neurons, NOM p-val 0.885714): −0.7344; NES: Rna Splicing Factor Activity Transesterification Mechanism (enriched in untreated DA neurons, NOM p-val 0.891892): −0.5675; NES: Specific Rna Polymerase Ii Transcription Factor Activity (enriched in untreated DA neurons, NOM p-val 0.904762): −0.6412; NES: Isomerase Activity [8]: −0.6048; NES: Transcription Activator Activity [8]: −0.8411; NES: Kinase Regulator Activity (enriched in untreated DA neurons, NOM p-val 0.911765): −0.6989; NES: Phospholipid Binding (enriched in untreated DA neurons, NOM p-val 0.914894): −0.6869; NES: Atpase Activity Coupled (enriched in untreated DA neurons, NOM p-val 0.925926): −0.7071; NES: Carboxylic Acid Transmembrane Transporter Activity (enriched in untreated DA neurons, NOM p-val 0.947368): −0.696; NES: Phosphoinositide Binding (enriched in untreated DA neurons, NOM p-val 0.953488): −0.5604; NES: Amino Acid Transmembrane Transporter Activity [9]: −0.4938; NES: Serine Hydrolase Activity [9]: −0.6304; NES: Hormone Receptor Binding (enriched in untreated DA neurons, NOM p-val 0.969697): −0.4774; NES: Protein Heterodimerization Activity (enriched in untreated DA neurons, NOM p-val 0.971429): −0.7909; NES: Oxidoreductase Activity Acting On Nadh Or Nadph (enriched in untreated DA neurons, NOM p-val 0.975): −0.4995; NES: Serine Type Peptidase Activity (enriched in untreated DA neurons, NOM p-val 0.97561): −0.6529; NES: Amine Transmembrane Transporter Activity [10]: −0.4108; NES: Nucleotidyltransferase Activity [10]: −0.497; NES: Structural Constituent Of Ribosome [10]: −0.2676; NES: Serine Type Endopeptidase Activity (enriched in untreated DA neurons, NOM p-val […]): −0.6588
